Test results reported in US4803066A, “Antibacterial and/or antifungal compositions for topical application” (Smith & Nephew Associated Companies p.l.c., priority 1986, dated 1989).
≈ marks a conversion by molar mass, not a printed value.

How the values were obtained:
[1] = test system: C. albicans V ATCC 10231; test: MIC of silver nitrate and clotrimazole individually and in combination (broth, microtitre plate); assay type: cell-based, Candida albicans; conditions: for MIC: Combination of Agents, Clotrimazole: in combination with silver nitrate; for MIC: Combination of Agents, Clotrimazole / MIC: Individual Agents / MIC: Combination of Agents, Silver nitrate: C. albicans V ATCC 10231; for MIC: Individual Agents: alone; for MIC: Combination of Agents, Silver nitrate: in combination with clotrimazole
Description: (§1) The test method employed was as follows suspensions of each agent or combination of agents were prepared at a range of dilutions in 60% propylene glycol in water. Isosensitest (trade mark) broth was inoculated with a test organism at a concentration of 10^5 organisms per ml and a sample was dispensed into wells of a microliter plate. The range of concentration of test substance or combination was added to the wells so that there was a further 10-fold dilution of the test substance or combination. The plates were incubated for either 24 or 48 hours at 37° C., and the MIC read as the lowest concentration giving no visible growth. For each organism tested all conditions of inoculum preparation, inoculation and incubation were standardised throughout.

[2] = test system: C. albicans I; test: microbe, parasite or virus in culture; conditions: Candida albicans, read-out: MIC: Individual Agents
Description: as §1

[3] = test system: C. albicans 159; test: microbe, parasite or virus in culture; conditions: Candida albicans, 159, read-out: MIC: Individual Agents
Description: as §1

[4] = test system: Staph. aureus NCTC 10788; test: microbe, parasite or virus in culture; conditions: Staphylococcus aureus, NCTC10788, read-out: MIC: Individual Agents
Description: as §1

[5] = test system: Staph. aureus 1300; test: microbe, parasite or virus in culture; conditions: Staphylococcus aureus, 1300, read-out: MIC: Individual Agents
Description: as §1

[6] = test system: Enterococcus 0022; test: microbe, parasite or virus in culture; conditions: Enterococcus, 0022, read-out: MIC: Individual Agents
Description: as §1

[7] = test system: C. albicans V; test: MIC of agents individually and in combination (broth, microtitre plate); conditions: Candida albicans, read-out: MIC: Individual Agents
Description: as §1

[8] = test system: Staph. aureus; test: microbe, parasite or virus in culture; conditions: Staphylococcus aureus, read-out: MIC: Individual Agents
Description: as §1

[9] = test system: E. Coli 0029; test: microbe, parasite or virus in culture; conditions: Escherichia coli, read-out: MIC: Individual Agents
Description: as §1

Question: Clc1ccccc1C(c1ccccc1)(c1ccccc1)n1ccnc1 [Clotrimazole, 1-{(2-chlorophenyl)diphenylmethyl}-1H-imidazole] was tested. Which MIC ([1]; Candida albicans, ATCC10231, read-out: MIC: Individual Agents) did it give?
Answer: 12.5 µg/mL

Question: What about the “MIC: Combination of Agents, Clotrimazole” value ([1]; Table 3) of the same compound?
Answer: 3.125 µg/mL

Question: What about the “MIC: Individual Agents” value ([1]; Table 4) of the same compound?
Answer: 12.5 µg/mL

Question: And the “MIC: Combination of Agents, Clotrimazole” value ([1]; Table 4)?
Answer: 3.125 µg/mL

Question: And the MIC [2]?
Answer: 5 µg/mL (≈ 14.5 µM)

Question: What about the MIC [3] of the same compound?
Answer: 25 µg/mL (≈ 72.5 µM)

Question: And the MIC [4]?
Answer: 100 µg/mL (≈ 290 µM)

Question: What about the MIC [5] of the same compound?
Answer: 100 µg/mL (≈ 290 µM)

Question: And the MIC [6]?
Answer: 100 µg/mL (≈ 290 µM)

Question: What about the MIC [7] of the same compound?
Answer: 0.5 µg/mL

Question: Which MIC [8] does the source give for Clc1ccc(COC(Cn2ccnc2)c2ccc(Cl)cc2Cl)c(Cl)c1 (centres unmarked) [Miconazole nitrate, 1-{2-(2,4-dichlorophenyl)-2-[(2,4-dichlorophenyl)methoxy]ethyl}-1H-imidazole] here?
Answer: > 500 µg/mL

Question: And the MIC [9]?
Answer: > 500 µg/mL

Question: And the MIC [7]?
Answer: 62.5 µg/mL

Question: With O=[N+]([O-])[O-].[Ag+] [Silver nitrate, silver nitrate] as the compound, how does the “MIC: Individual Agents” value ([1]; Table 3) read?
Answer: 25 µg/mL

Question: What about the “MIC: Combination of Agents, Silver nitrate” value ([1]; Table 3) of the same compound?
Answer: 6.25 µg/mL

Question: And the “MIC: Individual Agents” value ([1]; Table 4)?
Answer: 25 µg/mL

Question: What about the “MIC: Combination of Agents, Silver nitrate” value ([1]; Table 4) of the same compound?
Answer: 6.25 µg/mL
